Reference: US9695155B2, “Herbicidal substituted pyrimidinyloxy benzene compounds” (E. I. DU PONT DE NEMOURS AND COMPANY, priority 2013, dated 2017)

Legend:
galium = assay: Test C preemergence; format: in vivo, Galium aparine; settings: for Galium plant response rating: preemergence; for Plant response rating, Galium: Preemergence, 31 g ai/ha, scale 0 to 100, 0 no effect, 100 complete control
In short: (§1)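 Seeds are planted in blended loam soil and sand and treated preemergence, while seedlings in a peat moss/vermiculite medium receive postemergence sprays at 2 to 18 cm height. All plants stay in the greenhouse for 13 to 15 days before visual comparison with controls on a 0–100 scale.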

kochia = assay: Test C postemergence; format: in vivo, Kochia scoparia; settings: for Kochia plant response rating / Plant response rating, Kochia: scale 0 to 100 (0 no effect, 100 complete control)
In short: as §1

blackgrass = assay: Test C postemergence; format: in vivo, Alopecurus myosuroides; settings: for Blackgrass plant response rating / Plant response rating, Blackgrass: scale 0 to 100 (0 no effect, 100 complete control)
In short: as §1

rice = assay: Test B flooded paddy test; format: in vivo, Oryza sativa; settings: Flood, 250 g ai/ha; 0 to 100 scale where 0 is no effect and 100 is complete control
In short: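 Seedlings are raised to two leaves, flooded to a depth of 3 cm and dosed by adding the compound to the floodwater. Water level is kept constant, and plants are scored visually versus controls 13–15 days later (0 = no effect, 100 = complete control).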

oilseed rape = assay: Test C preemergence; format: in vivo, Brassica napus; settings: for Oilseed Rape plant response rating: preemergence; for Plant response rating, Oilseed Rape: Preemergence, 31 g ai/ha, scale 0 to 100, 0 no effect, 100 complete control
In short: as §1

barnyardgrass = assay: Test A preemergence; format: in vivo, Echinochloa crus-galli; settings: for Plant response rating, Barnyardgrass: 125 g ai/ha; for Barnyardgrass plant response rating: 500 g ai/ha
In short: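 Greenhouse pot test, loam/sand soil. Formulation: non-phytotoxic solvent mix plus surfactant. Pre: directed spray onto soil after sowing. Post: plants at 1–2 leaf, 2–10 cm. Rated visually vs untreated controls at ~10 d, 0 (no effect) to 100 (complete control).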

corn = assay: Test C preemergence; format: in vivo, Zea mays; settings: for Corn plant response rating: preemergence; for Plant response rating, Corn: Preemergence, 31 g ai/ha, scale 0 to 100, 0 no effect, 100 complete control
In short: as §1

wild oat = assay: Test C postemergence; format: in vivo, Avena fatua; settings: for Plant response rating, Oat, Wild: scale 0 to 100 (0 no effect, 100 complete control)
In short: as §1

morningglory [1] = assay: Test C postemergence; format: in vivo, Ipomoea coccinea; settings: for Plant response rating, Morningglory: scale 0 to 100 (0 no effect, 100 complete control)
In short: as §1

yellow nutsedge [2] = assay: Test C postemergence; format: in vivo, Cyperus esculentus; settings: for Plant response rating, Nutsedge, Yellow: scale 0 to 100 (0 no effect, 100 complete control)
In short: as §1

yellow nutsedge [3] = assay: Test C preemergence; format: in vivo, Cyperus esculentus; settings: for Nutsedge, Yellow plant response rating: preemergence; for Plant response rating, Nutsedge, Yellow: Preemergence, 31 g ai/ha, scale 0 to 100, 0 no effect, 100 complete control
In short: as §1

morningglory [4] = assay: Test C preemergence; format: in vivo, Ipomoea coccinea; settings: for Morningglory plant response rating: preemergence; for Plant response rating, Morningglory: Preemergence, 31 g ai/ha, scale 0 to 100, 0 no effect, 100 complete control
In short: as §1

[5] = 16 g ai/ha, scale 0 to 100 (0 no effect, 100 complete control)
[6] = 62 g ai/ha, scale 0 (no effect) to 100 (complete control)
[7] = 125 g ai/ha, scale 0 (no effect) to 100 (complete control)
[8] = 16 g ai/ha, postemergence, visual rating, 13 to 15 days
[9] = Postemergence, 31 g ai/ha, 13 to 15 days
[10] = 0 to 100 scale where 0 is no effect and 100 is complete control
[11] = 0 to 100 scale, 0 no effect, 100 complete control, approx. 10 days
[12] = 16 g ai/ha, postemergence, 0 is no effect, 100 is complete control
[13] = 125 g ai/ha, postemergence, visual rating

SMILES	Galium plant response rating (galium; [5])	Galium plant response rating (galium; [6])	Galium plant response rating (galium; [7])	Plant response rating, Galium (galium)	Plant response rating, Kochia (kochia; Postemergence, 62 g ai/ha)	Plant response rating, Blackgrass (blackgrass; [9])	Plant response rating, Blackgrass (blackgrass; Postemergence, 62 g ai/ha)	Plant response rating, Rice (rice)	Oilseed Rape plant response rating (oilseed rape; [5])	Oilseed Rape plant response rating (oilseed rape; [6])	Oilseed Rape plant response rating (oilseed rape; [7])	Plant response rating, Barnyardgrass (barnyardgrass; [10])	Corn plant response rating (corn; [5])	Corn plant response rating (corn; [6])	Corn plant response rating (corn; [7])	Plant response rating, Corn (corn)	Plant response rating, Oat, Wild (wild oat; Postemergence, 62 g ai/ha)	Plant response rating, Morningglory (morningglory [1]; Postemergence, 62 g ai/ha)	Plant response rating, Nutsedge, Yellow (yellow nutsedge [2]; Postemergence, 62 g ai/ha)	Nutsedge, Yellow plant response rating (yellow nutsedge [3]; [5])	further results
FCc1cccc(Oc2ncc(Cl)cn2)c1-n1cc(Br)cn1 [Compound 83]	0	85	100	0	90	5	5	0	75	98	100	60	0	0	15	0	10	75	5	0	Kochia plant response rating (kochia; [8]): 60; Plant response rating (0 to 100), Kochia (kochia; 125 g ai/ha, postemergence): 95; Plant response rating, Kochia (kochia; [9]): 70; Blackgrass plant response rating (blackgrass; [8]): 0; Plant response rating (0 to 100), Blackgrass (blackgrass; 125 g ai/ha, postemergence): 20; Plant response rating, Oilseed Rape (oilseed rape): 95; Barnyardgrass plant response rating (barnyardgrass; [11]): 90; Plant response rating (0 to 100), Oat, Wild (wild oat; 125 g ai/ha, postemergence): 5; Plant response rating, Oat, Wild (wild oat; [9]): 0; Plant response rating (0 to 100), Morningglory (morningglory [1]; 125 g ai/ha, postemergence): 85; Plant response rating, Morningglory (morningglory [1]; [9]): 65; Plant response rating (0 to 100), Nutsedge, Yellow (yellow nutsedge [2]; 125 g ai/ha, postemergence): 5; Plant response rating, Nutsedge, Yellow (yellow nutsedge [2]; [9]): 0; Nutsedge, Yellow plant response rating (yellow nutsedge [3]; [6]): 0; Nutsedge, Yellow plant response rating (yellow nutsedge [3]; [7]): 15; Plant response rating, Nutsedge, Yellow (yellow nutsedge [3]): 0; Morningglory plant response rating (morningglory [4]; [5]): 0; Morningglory plant response rating (morningglory [4]; [6]): 0; Morningglory plant response rating (morningglory [4]; [7]): 10; Plant response rating, Morningglory (morningglory [4]): 0
Clc1cnc(Oc2cccc(Br)c2-n2cc(Br)nn2)nc1 [Compound 129]	50	95	100	80	95	5	5	0	50	100	100	70	0	5	30	5	15	80	5	0	Plant response rating (0 to 100), Kochia (kochia; [12]): 90; Plant response rating, Kochia (kochia; [13]): 100; Plant response rating (0 to 100), Blackgrass (blackgrass; [12]): 5; Plant response rating, Blackgrass (blackgrass; [13]): 10; Plant response rating, Oilseed Rape (oilseed rape): 85; Barnyardgrass plant response rating (barnyardgrass; [10]): 90; Plant response rating (0 to 100), Oat, Wild (wild oat; [12]): 0; Plant response rating, Oat, Wild (wild oat; [13]): 10; Plant response rating (0 to 100), Morningglory (morningglory [1]; [12]): 75; Plant response rating, Morningglory (morningglory [1]; [13]): 85; Plant response rating (0 to 100), Nutsedge, Yellow (yellow nutsedge [2]; [12]): 0; Plant response rating, Nutsedge, Yellow (yellow nutsedge [2]; [13]): 10; Nutsedge, Yellow plant response rating (yellow nutsedge [3]; [6]): 5; Nutsedge, Yellow plant response rating (yellow nutsedge [3]; [7]): 25; Plant response rating, Nutsedge, Yellow (yellow nutsedge [3]): 0; Morningglory plant response rating (morningglory [4]; [5]): 5; Morningglory plant response rating (morningglory [4]; [6]): 45; Morningglory plant response rating (morningglory [4]; [7]): 75; Plant response rating, Morningglory (morningglory [4]): 35
Cc1cnc(Oc2cccc(C#N)c2-n2cc(I)cn2)nc1 [Compound 136]	0	30	85	0	60	5	5	15	0	50	100	60	5	5	15	0	5	50	5	0	Plant response rating (0 to 100), Kochia (kochia; [12]): 5; Plant response rating, Kochia (kochia; [13]): 70; Plant response rating (0 to 100), Blackgrass (blackgrass; [12]): 0; Plant response rating, Blackgrass (blackgrass; [13]): 5; Barnyardgrass plant response rating (barnyardgrass; [10]): 100; Plant response rating (0 to 100), Oat, Wild (wild oat; [12]): 0; Plant response rating, Oat, Wild (wild oat; [13]): 5; Plant response rating (0 to 100), Morningglory (morningglory [1]; [12]): 5; Plant response rating, Morningglory (morningglory [1]; [13]): 40; Plant response rating (0 to 100), Nutsedge, Yellow (yellow nutsedge [2]; [12]): 0; Plant response rating, Nutsedge, Yellow (yellow nutsedge [2]; [13]): 10; Nutsedge, Yellow plant response rating (yellow nutsedge [3]; [6]): 10; Nutsedge, Yellow plant response rating (yellow nutsedge [3]; [7]): 35; Morningglory plant response rating (morningglory [4]; [5]): 20; Morningglory plant response rating (morningglory [4]; [6]): 10; Morningglory plant response rating (morningglory [4]; [7]): 60
N#Cc1cccc(Oc2ncc(F)cn2)c1-n1cc(I)cn1 [Compound 86]	90	98	90	80	90	5	5	0	25	100	100	80	0	30	80	25	5	85	5	0	Kochia plant response rating (kochia; [8]): 50; Plant response rating (0 to 100), Kochia (kochia; 125 g ai/ha, postemergence): 95; Plant response rating, Kochia (kochia; [9]): 60; Blackgrass plant response rating (blackgrass; [8]): 5; Plant response rating (0 to 100), Blackgrass (blackgrass; 125 g ai/ha, postemergence): 10; Plant response rating, Oilseed Rape (oilseed rape): 100; Barnyardgrass plant response rating (barnyardgrass; [11]): 100; Plant response rating (0 to 100), Oat, Wild (wild oat; 125 g ai/ha, postemergence): 10; Plant response rating, Oat, Wild (wild oat; [9]): 0; Plant response rating (0 to 100), Morningglory (morningglory [1]; 125 g ai/ha, postemergence): 85; Plant response rating, Morningglory (morningglory [1]; [9]): 80; Plant response rating (0 to 100), Nutsedge, Yellow (yellow nutsedge [2]; 125 g ai/ha, postemergence): 5; Plant response rating, Nutsedge, Yellow (yellow nutsedge [2]; [9]): 0; Nutsedge, Yellow plant response rating (yellow nutsedge [3]; [6]): 5; Nutsedge, Yellow plant response rating (yellow nutsedge [3]; [7]): 35; Plant response rating, Nutsedge, Yellow (yellow nutsedge [3]): 0; Morningglory plant response rating (morningglory [4]; [5]): 10; Morningglory plant response rating (morningglory [4]; [6]): 60; Morningglory plant response rating (morningglory [4]; [7]): 100; Plant response rating, Morningglory (morningglory [4]): 25
